Laboratory results taken from patent US8618286B2, “Benzoxazines, benzothiazines, and related compounds having NOS inhibitory activity” (NeurAxon, Inc., priority 2008, dated 2013).

Experiments:
[1] = tested on: Carrageenan model of inflammatory pain; test: Carrageenan model of inflammatory pain; format: in vivo, rat; settings: rats
Experimental: Inflammation was induced by injecting 0.1 mL of a 3% carrageenan suspension s.c. into the supplanter aspect of a hindpaw of lightly anesthetized rats. Typically, pronounced inflammation and edema were obvious within three hours of the injection. The carrageenan model is a model of inflammatory pain with two components: the first occurring immediately after injection provides information on the acute nociceptive response to a painful stimulus (in this case, the chemical carrageenan). There is also a second, neurogenic component that develops several hours later and reflects the type of neuronal activity due to the hyperalgesic and allodynic components as found in neuropathic pain. Considerable evidence has shown that NO and its enzymes are involved in the central mechanisms of inflammatory hyperalgesia at the spinal cord level and that peripheral inflammation can upregulate nNOS expression and induce iNOS expression in the spinal cord (Guhring et al., J. Neurosci. 20:6714-6720, 2000; Wu et al., Exp. Brain Res. 118:457-465, 1998; and Wu et al., Pain 94:47-58, 2001).

[2] = tested on: L5/L6 spinal nerve ligation model of neuropathic pain (Chung model); test: Chung L5/L6 spinal nerve ligation model of neuropathic pain; format: in vivo, rat; settings: rats, L5/L6 SNL
Experimental: (§1) The L5/L6 spinal nerve was surgically ligated and animals allowed to recover for a period of 7-10 days. During this period animals develop neuropathic pain. The reduction of paw withdrawal latency after an infrared thermal stimulus (post-SNL) was measured following the induction period for comparison with pre-surgery baseline levels (BL). Following drug administration, thermal hyperalgesia was measured at various time points.
as §1, with “tactile thresholds” for “paw withdrawal latency after an infrared thermal stimulus”, “tactile allodynia” for “thermal hyperalgesia”, “points with calibrated von-Frey filaments.” for “points.”
The experimental designs for the Chung Spinal Nerve Ligation SNL Model assay for neuropathic pain are depicted in FIGS. 1 and 2. Nerve ligation injury was performed according to the method described by Kim and Chung (Kim and Chung, Pain 50:355-363, 1992). This technique produces signs of neuropathic dysesthesias, including tactile allodynia, thermal hyperalgesia, and guarding of the affected paw. Rats were anesthetized with halothane, and the vertebrae over the L4 to S2 region were exposed. […]

[3] = target: Recombinant human inducible NOS (iNOS) (Homo sapiens (Human), UniProt P35228); test: Human iNOS enzyme assay (Protocol 1 or Protocol 2, radiometric); format: biochemical
Experimental: The human iNOS assay was carried by either one of the two protocols as described herein:
Recombinant human inducible NOS (iNOS) was produced in Baculovirus-infected Sf9 cells (ALEXIS). In a radiometric method, NO synthase activity was determined by measuring the conversion of [^3H]L-arginine to [^3H]L-citrulline. To measure iNOS, 10 μL of enzyme was added to 100 μL of 100 mM HEPES, pH=7.4, containing 1 mM CaCl2, 1 mM EDTA, 1 mM dithiothreitol, 1 μM FMN, 1 μM FAD, 10 μM tetrahydrobiopterin, 120 μM NADPH, and 100 nM CaM.
To measure enzyme inhibition, a 15 μL solution of a test substance was added to the enzyme assay solution, followed by a pre-incubation time of 15 min at RT. The reaction was initiated by addition of 20 μL L-arginine containing 0.25 μCi of [^3H] arginine/mL and 24 μM L-arginine. The total volume of the reaction mixture was 150 μL in every well. The reactions were carried out at 37° C. for 45 minutes, The reaction was stopped by adding 20 μL of ice-cold buffer containing 100 mM HEPES, 3 mM EGTA, 3 mM EDTA, pH=5.5. [^3H]L-citrulline was separated by DOWEX (ion-exchange resin DOWEX 50 W×8-400, SIGMA) and the DOWEX was removed by spinning at 12,000 g for 10 min in the centrifuge. An aliquot (70 μL) of the supernatant was added to 100 μL of scintillation fluid, and the samples were counted in a liquid scintillation counter (1450 Microbeta Jet, Wallac). Specific NOS activity was reported as the difference between the activity recovered from the test solution and that observed in a control sample containing 240 mM of the inhibitor L-NMMA. All assays were performed at least in duplicate. Standard deviations are 10% or less.
Primary stock solutions of each test compound were prepared in distilled water on the day of study to obtain a final concentration of 6 mM. For the determination of IC50 values, 11 test compound concentrations were prepared as 3-fold serial dilutions. Test compounds were tested in the iNOS assay at a concentration of 1000 μM to 0.0169 μM. The vehicle of the test compound or inhibitor, distilled water, was used as blank control. For non-specific activity, 100 μM L-NMMA was run in parallel as a control.
All incubations were performed in duplicate
The reaction mixture was prepared on ice by the addition of the following components to the appropriate well of a 1.0 mL 96-well polypropylene plate:
10 μL of test compound, reference inhibitor, or control (vehicle or L-NMMA) solution;
25 μL of Reaction Buffer (50 mM Tris-HCl, 6 μM BH4, 2 μM FMN, 2 μM FAD);
5 μL of 10 mM NADPH solution;
5 μL of 1 μM Calmodulin; and
The reaction mixture was pre-incubated at room temperature for 15 minutes. Following this pre-incubation, the reaction was initiated by the addition of 5 μL of the substrate L-arginine (1 μCi of [^3H]-L-Arginine+30 μM of unlabeled L-Arginine) to the reaction mixture. The total reaction volume was 60 μL. The assay plate containing the reaction mixtures was sealed and incubated at 37° C. for 30 minutes. At the end of this incubation period, 400 μL of ice-cold Stop Buffer (the EDTA in the Stop Buffer chelates all of the available calcium) was added to each well to stop the reaction. 100 μL of equilibrated resin pH 5.5 was added to each of the assay wells. The reaction samples were vortexed and transferred to spin cups, after-which they were centrifuged at 13,000 rpm for 30 sec. The spin cups were removed from the holder and […] (containing the unbound L-citrulline) were added to the appropriate wells of a 96-well liquid scintillation plate. 175 μL of scintillation fluid were also added to each well. The plate was sealed, and radioactivity was quantitated using a Microbeta liquid scintillation counter.
Data were analyzed using a Sigmoidal dose-response (variable slope) curve to determine the IC50 value of the test compound. Y=Bottom+(Top−Bottom)/(1+10^((Log IC50−X)*Hill Slope))

IC50 [3]: 70.6 µM
SMILES: CNCCN1CCSc2cc(NC(=N)c3cccs3)ccc21 [Compound 8, N-(4-(2-(methylamino)ethyl)-3,4-dihydro-2H-benzo[b][1,4]thiazin-7-yl)thiophene-2-carboximidamide]
reversal of mechanical allodynia ([1]; ipsilateral paw, 60, 100, or 200 mg/kg p.o. (FIG. 6)): reversal of mechanical allodynia | reversal of thermal hyperalgesia (late phase), paw withdrawal latency ([1]; ipsilateral paw, text: i.p. dosing, FIG. 7 legend: 60, 100, or 200 mg/kg p.o.): reversal of thermal hyperalgesia | reversal of tactile allodynia ([2]; i.p. 30 mg/kg, von Frey filaments): reversal of tactile allodynia | reversal of thermal hyperalgesia ([2]; i.p., text: e.g. 3 mg/kg, FIG. 3 legend: 30 mg/kg): clear effect
